Data on 17 compounds can be found in patent US10501425B2, “Microbiocidal oxadiazole derivatives” (SYNGENTA PARTICIPATIONS AG, priority 2015, dated 2019).

“And” between values parts separate entries of the source, which are not always exact repeats. Identical values can stand only once.

For data set [1], the system named is Puccinia recondita f. Sp. Tritici. The data set is described as follows: Puccinia recondita f. sp. tritici / wheat / leaf disc curative (brown rust). The data set is classed as in vivo. The conditions noted are these: foliar, 24 h, 200 ppm in the applied formulation, wheat leaf segments cv. Kanzler, curative (applied 1 day after inoculation), compared to untreated, read-out: disease control. The essentials:
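Segments of wheat (cultivar Kanzler) sit on agar and are spore-inoculated first; after one day in darkness at 19° C and 75% RH the diluted formulated compound is sprayed on. A 12 h photoperiod follows at the same temperature and humidity before disease is scored against untreated controls.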

Data set [2] has as its system Glomerella lacenarium (Colletotrichum lagenarium). The experiment in a line: Glomerella lagenarium liquid culture / cucumber / preventative (anthracnose). The data set is classed as cell-based. The settings on record: Colletotrichum orbiculare; 20 ppm in the applied formulation; liquid culture (PDB), growth inhibition measured photometrically 3 to 4 days after application; compared to untreated; read-out: disease control. The essentials: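 Conidia from cryogenic storage were mixed into potato dextrose broth. This was added to compound diluted from DMSO into 0.025% Tween20, tested at 20 ppm. Plates were incubated in the dark at 24 °C and 96% relative humidity, and growth was read photometrically after 2–7 days as % activity versus untreated check.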

Data set [3] has as its system Puccinia recondita f. Sp. Tritici. The data set is described as follows: Puccinia recondita f. sp. tritici / wheat / leaf disc preventative (brown rust). Type of data set: in vivo. The conditions noted are these: foliar, 200 ppm in the applied formulation, wheat leaf segments cv. Kanzler, preventative (inoculated 1 day after application), compared to untreated, read-out: disease control. In short, it runs like this: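 Wheat leaf segments (cv. Kanzler) on water agar were sprayed with test compound (DMSO stock diluted in 0.025% Tween20/water), then spore-inoculated 1 day later. Incubation at 19° C., 75% rh, 12 h light/12 h dark; percent disease control versus untreated segments scored 7 to 9 days after application. Tested at 200 ppm.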

The test system of data set [4] is Phakopsora pachyrhizi. The data set is described as follows: Phakopsora pachyrhizi / soybean / leaf disc preventative (Asian soybean rust). The data set is classed as in vivo. The settings on record: foliar, 200 ppm in the applied formulation, soybean leaf disks, compared to untreated, read-out: disease control. The essentials: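 Read-out is percent disease control relative to untreated check discs, assessed once untreated discs show adequate disease, 12 to 14 days after application. Compounds, tested at 200 ppm in the applied formulation, are sprayed onto soybean leaf discs one day before inoculation with a spore suspension.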

In data set [5] the test system is Uromyces viciae-fabae. The data set is described as follows: Uromyces viciae-fabae / field bean / leaf disc preventative (faba-bean rust). The conditions noted are these: foliar, 288 h, 100 ppm in the applied formulation, field bean leaf discs, compared to untreated, read-out: disease control. The data set is classed as in vivo. As for the experimental part:
Leaf disks or leaf segments of various plant species are cut from plants grown in a greenhouse. The cut leaf disks or segments are placed in multiwell plates (24-well format) onto water agar. The leaf disks are sprayed with a test solution before (preventative) or after (curative) inoculation. Compounds to be tested are prepared as DMSO solutions (max. 10 mg/ml) which are diluted to the appropriate concentration with 0.025% Tween20 just before spraying. The inoculated leaf disks or segments are incubated under defined conditions (temperature, relative humidity, light, etc.) according to the respective test system. A single evaluation of disease level is carried out 3 to 14 days after inoculation, depending on the pathosystem. Percent disease control relative to the untreated check leaf disks or segments is then calculated. Field bean leaf discs are placed on water agar in multiwell plates (96-well format) and 10 μl of the formulated test compound diluted in acetone and a spreader pipetted onto the leaf disc. Two hours after application leaf discs are inoculated by spraying a spore suspension on the lower leaf surface. The leaf discs are incubated in a climate cabinet at 22° C. with 18 hour light/day and 70% relative humidity. The activity of a compound is assessed as percent disease control compared to untreated when an appropriate level of disease damage appears in untreated check leaf disks (12 days after application). The following compounds at 100 ppm in the applied formulation give at least 80% disease control in this test when compared to untreated control leaf discs under the same conditions, which show extensive disease development.

Broadly, the melting point is the temperature of the solid-liquid transition. `COCC(=O)NCc1ccc(-c2noc(C(F)(F)F)n2)cc1` [Compound 1.25, 2-methoxy-N-[[4-[5-(trifluoromethyl)-1,2,4-oxadiazol-3-yl]phenyl]methyl]acetamide] had a melting point of 127 to 128 °C. In data set [1], the pest or weed control at 200 ppm is at least 80%. In data set [2], the inhibition of growth at 20 ppm is at least 80%. In addition, in data set [3], the pest or weed control at 200 ppm was at least 80%. In addition, in data set [4], the pest or weed control at 200 ppm is at least 80%.
`COC(=O)NCCc1ccc(-c2noc(C(F)(F)F)n2)cc1` [Compound 2.36, methyl N-[2-[4-[5-(trifluoromethyl)-1,2,4-oxadiazol-3-yl]phenyl]ethyl]carbamat] displayed a melting point of 84.8 to 86.5 °C. In addition, the pest or weed control at 200 ppm in data set [1] was at least 80%. Besides, the inhibition of growth at 20 ppm in data set [2] was at least 80%. For the same compound, the pest or weed control at 200 ppm in data set [3] was at least 80%. The pest or weed control at 200 ppm in data set [4] is at least 80%.
For `CCC(=O)NC(C#N)c1ccc(-c2noc(C(F)(F)F)n2)cc1` (stereo not shown) [Compound 1.100, N-[cyano-[4-[5-(trifluoromethyl)-1,2,4-oxadiazol-3-yl]phenyl]methyl]propanamide], the melting point was in the range of 185 to 186 °C. Further, the pest or weed control at 200 ppm in data set [1] was at least 80%. The inhibition of growth at 20 ppm in data set [2] was at least 80%. Also, the pest or weed control at 200 ppm in data set [3] was at least 80%. Also, in data set [4], the pest or weed control at 200 ppm is at least 80%.
Compound `CC(OC(F)F)C(=O)NCc1ccc(-c2noc(C(F)(F)F)n2)cc1` (stereo not shown) [Compound 1.33, 2-(difluoromethoxy)-N-[[4-[5-(trifluoromethyl)-1,2,4-oxadiazol-3-yl]phenyl]methyl]propanamide] returned a melting point of 66 to 70 °C. In data set [1], the pest or weed control at 200 ppm is at least 80%. In data set [2], the inhibition of growth at 20 ppm was at least 80%. Moreover, the pest or weed control at 200 ppm in data set [3] was at least 80%. The pest or weed control at 200 ppm in data set [4] was at least 80%.
For `CC(O)C(=O)NCc1ccc(-c2noc(C(F)(F)F)n2)cc1` (stereo not shown) [Compound 1.28, 2-hydroxy-N-[[4-[5-(trifluoromethyl)-1,2,4-oxadiazol-3-yl]phenyl]methyl]propanamide], the melting point fell in the range of 90 to 94 °C. The pest or weed control at 200 ppm in data set [1] was at least 80%. In data set [2], the inhibition of growth at 20 ppm is at least 80%. Also, the pest or weed control at 200 ppm in data set [3] is at least 80%. Moreover, the pest or weed control at 200 ppm in data set [4] was at least 80%.
`O=C(COC(F)F)NCc1ccc(-c2noc(C(F)(F)F)n2)cc1` [Compound 1.97, 2-(difluoromethoxy)-N-[[4-[5-(trifluoromethyl)-1,2,4-oxadiazol-3-yl]phenyl]methyl]acetamide] showed a melting point of 92 to 100 °C. Further, the pest or weed control at 200 ppm in data set [1] is at least 80%. Moreover, the inhibition of growth at 20 ppm in data set [2] was at least 80%. Further, the pest or weed control at 200 ppm in data set [3] was at least 80%. Besides, the pest or weed control at 200 ppm in data set [4] is at least 80%.
`CNC(=O)NCc1ccc(-c2noc(C(F)(F)F)n2)cc1` [Compound 3.4, 1-methyl-3-[[4-[5-(trifluoromethyl)-l,2,4-oxadiazol-3-yl]phenyl]methyl]urea] returned a melting point of 198 to 201 °C. In addition, in data set [1], the pest or weed control at 200 ppm is at least 80%. Besides, the inhibition of growth at 20 ppm in data set [2] is at least 80%. Moreover, the pest or weed control at 200 ppm in data set [3] is at least 80%. Also, the pest or weed control at 200 ppm in data set [4] was at least 80%.
As to `CCC(=O)NCCc1ccc(-c2noc(C(F)(F)F)n2)cc1` [Compound 1.29, N-[2-[4-[5-(trifluoromethyl)-1,2,4-oxadiazol-3-yl]phenyl]ethyl]propanamide], the melting point was 133.6 to 135 °C and 133 to 145 °C. Moreover, in data set [1], the pest or weed control at 200 ppm is at least 80%. For the same compound, the inhibition of growth at 20 ppm in data set [2] was at least 80%. In addition, the pest or weed control at 200 ppm in data set [3] is at least 80%. The pest or weed control at 200 ppm in data set [4] is at least 80%.
`CCC(=O)NC(C)(C)c1ccc(-c2noc(C(F)(F)F)n2)cc1` [Compound 1.93, N-[1-methyl-1-[4-[5-(trifluoromethyl)-1,2,4-oxadiazol-3-yl]phenyl]ethyl]propanamide] registered a melting point of 142 to 146 °C. The pest or weed control at 200 ppm in data set [1] is at least 80%. Besides, in data set [2], the inhibition of growth at 20 ppm was at least 80%. Also, the pest or weed control at 200 ppm in data set [3] is at least 80%. Besides, the pest or weed control at 200 ppm in data set [4] was at least 80%.
`O=C(CCCCC(F)(F)F)NCc1ccc(-c2noc(C(F)(F)F)n2)cc1` [Compound 1.18, 6,6,6-trifluoro-N-[[4-[5-(trifluoromethyl)-1,2,4-oxadiazol-3-yl]phenyl]methyl]hexanamide]: the pest or weed control at 100 ppm in data set [5] was at least 80%. Further, the pest or weed control at 200 ppm in data set [3] and in data set [4] was at least 80% each time.
On to `O=C(NCc1ccc(-c2noc(C(F)(F)F)n2)cc1)C(F)(F)F` [Compound 1.102, 2,2,2-trifluoro-N-[[4-[5-(trifluoromethyl)-1,2,4-oxadiazol-3-yl]phenyl]methyl]acetamide], for which the melting point fell in the range of 146 to 149 °C. Moreover, in data set [1], the pest or weed control at 200 ppm was at least 80%. Further, the inhibition of growth at 20 ppm in data set [2] is at least 80%. Also, in data set [3], the pest or weed control at 200 ppm is at least 80%. Besides, the pest or weed control at 200 ppm in data set [4] is at least 80%.
Regarding `CC(=O)NCc1ccc(-c2noc(C(F)(F)F)n2)cc1` [Compound 1.101, N-[[4-[5-(trifluoromethyl)-1,2,4-oxadiazol-3-yl]phenyl]methyl]acetamide], the melting point lay within 130 to 135 °C. Further, the pest or weed control at 200 ppm in data set [1] is at least 80%. The inhibition of growth at 20 ppm in data set [2] was at least 80%. Also, the pest or weed control at 200 ppm in data set [3] is at least 80%. Further, the pest or weed control at 200 ppm in data set [4] was at least 80%.
In turn, `C#CCOC(=O)NCc1ccc(-c2noc(C(F)(F)F)n2)cc1` [Compound 2.19, prop-2-ynyl N-[[4-[5-(trifluoromethyl)-1,2,4-oxadiazol-3-yl]phenyl]methyl]carbamate] yielded a melting point of 93 to 95 °C. In addition, the pest or weed control at 200 ppm in data set [1] was at least 80%. Further, in data set [2], the inhibition of growth at 20 ppm was at least 80%. In data set [3], the pest or weed control at 200 ppm was at least 80%. Also, the pest or weed control at 200 ppm in data set [4] was at least 80%.
Turning to `CCOC(=O)NCCc1ccc(-c2noc(C(F)(F)F)n2)cc1` [Compound 2.5, ethyl N-[2-[4-[5-(trifluoromethyl)-1,2,4-oxadiazol-3-yl]phenyl]ethyl]carbamate], the melting point was in the range of 92 to 96 °C. Besides, in data set [1], the pest or weed control at 200 ppm is at least 80%. In addition, the inhibition of growth at 20 ppm in data set [2] is at least 80%. Also, the pest or weed control at 200 ppm in data set [3] is at least 80%. In data set [4], the pest or weed control at 200 ppm was at least 80%.
In the case of `CCC(CC(=O)NCc1ccc(-c2noc(C(F)(F)F)n2)cc1)C(F)(F)F` (stereo not shown) [Compound 1.24, 3-(trifluoromethyl)-N-[[4-[5-(trifluoromethyl)-1,2,4-oxadiazol-3-yl]phenyl]methyl]pentanamide], the pest or weed control at 100 ppm in data set [5] was at least 80%.
In the case of `COC(=O)NCc1ccc(-c2noc(C(F)(F)F)n2)cc1` [Compound 2.4, methyl N-[[4-[5-(trifluoromethyl)-1,2,4-oxadiazol-3-yl]phenyl]methyl]carbamate], the melting point fell in the range of 116 to 119 °C. In data set [1], the pest or weed control at 200 ppm was at least 80%. The inhibition of growth at 20 ppm in data set [2] was at least 80%. Besides, the pest or weed control at 200 ppm in data set [3] was at least 80%. The pest or weed control at 200 ppm in data set [4] is at least 80%.
Take `CCC(=O)NCc1ccc(-c2noc(C(F)(F)F)n2)cc1F` [Compound 1.26, N-[[2-fluoro-4-[5-(trifluoromethyl)-1,2,4-oxadiazol-3-yl]phenyl]methyl]propanamide]: the melting point is 99 to 110 °C. Moreover, the pest or weed control at 200 ppm in data set [1] is at least 80%. For the same compound, the inhibition of growth at 20 ppm in data set [2] was at least 80%. Besides, in data set [3], the pest or weed control at 200 ppm is at least 80%. Besides, the pest or weed control at 200 ppm in data set [4] is at least 80%.
